These results are taken from US7981838B2, “Defoliant” (Bayer CropScience AG, priority 2007, dated 2011).

Molecules are shown by their SMILES.

For the assay, the system named is Cotton plants of the cultivar "Linda". The assay can be described thus: Leaf drop (defoliation) test on cotton plants in climatized chamber, spray application. To be noted: 300 l/ha water. It is filed as in vivo. The protocol:
A water application rate of 300 l/ha was initially charged. The components herbicide and adjuvant were then added with stirring at the application rates and in the manner stated in table 1, such that a homogeneous spray liquor was formed. Here, the active ingredients were employed as suspension concentrates. The adjuvant used was Agrotin® (Bayer CropScience).
Cotton seeds of the cultivar “Linda” were sown at a depth of 1 cm and cultivated in a climatized chamber (16 h of light, temperature during the day: 26° C., at night: 20° C.) until they had reached the 8-10 leaf stage.
The plants were treated on a laboratory spray track with spray liquors of thidiazuron and thidiazuron with combination partners. The water application rate for the spray application was 300 l/ha. After the treatment, the plants were returned to the climatized chamber.
1, 2 and 4 weeks after the application, the leaf drop effect was evaluated according to a scale from 0 to 100%: • 0%=no noticeable effect compared to untreated plants • 100%=all leaves have dropped. 2.2 Results for the Combinations of (A) TDZ with (B) Cyprosulfamide

Where [1] appears, read: Table 2, dose 25 g of a.i./ha, 0.2% by weight of Agrotin added.
[2] abbreviates: Table 2, dose 200 g of a.i./ha, 0.2% by weight of Agrotin added.

Consider `O=C(Nc1ccccc1)Nc1cnns1` [TDZ, thidiazuron], for which the “Leaf drop [%] 2 weeks after application” value (Table 1, dose 35 g of a.i./ha, 1 l of Agrotin added, scale 0-100%) is recorded as 67%. Also, under setting [1], the “Leaf drop [%] 1 week after application” value was 37%, the “Leaf drop [%] 2 weeks after application” value came out at 56% and the “Leaf drop [%] 4 weeks after application” value came to 63%.
Turning to `COc1ccccc1C(=O)NS(=O)(=O)c1ccc(C(=O)NC2CC2)cc1` [Cyprosulfamide, 4-cyclopropylaminocarbonyl-N-(2-methoxybenzoyl)benzenesulfonamide], the “Leaf drop [%] 2 weeks after application” value (Table 1, dose 100 g of a.i./ha, 1 l of Agrotin added, scale 0-100%) turned out to be 7%. The “Leaf drop [%] 2 weeks after application” value (Table 1, dose 200 g of a.i./ha, 1 l of Agrotin added, scale 0-100%) is listed as 0%. Further, under setting [2], the “Leaf drop [%] 1 week after application” value stood at 0%, the “Leaf drop [%] 2 weeks after application” value was determined as 0% and the “Leaf drop [%] 4 weeks after application” value is 0%.
